According to patent US20240082212A1, “USE OF MDMA FOR TREATMENT OF STRESS-RELATED DISORDERS” (priority 2022, published 2024):
Entries after “also recorded” stand apart in the source; their conditions may differ. Where two headings read alike, the source gives them in different places.

What was measured:
[1] = Rat brain monoamine and metabolite concentrations 1 week after cumulative SC dosing; settings: cumulative SC, 1 week after dosing
C57BL/6J mice = assay: Head twitch response (HTR); format: in vivo, mouse; settings: 3 mg/kg IP, 30 minutes after injection
Protocol: Male C57BL/6J mice at 6-8 weeks of age were purchased from Jackson Laboratories and housed four per cage in a climate and humidity-controlled room in a vivarium at the University of California, San Diego. The room operated on a reverse light cycle (lights on at 1900 h, off at 0700 h) with food and water available ad libitum, except during testing. All testing was performed during 1000 h and 1800 h. After a minimum of 1 week acclimation to the housing facility, mice were anesthetized using a mixture of ketamine (100 mg/kg IP) and xylazine (10 mg/kg IP). Under deep anesthesia, an incision was made in the scalp and a small neodymium magnet (4.57 mm×4.57 mm×2.03 mm) was attached to the cranium using cyanoacrylate and dental cement. After at least a 2-week recovery period, the mouse was removed from the home cage and injected intraperitoneally with the test article or vehicle (0.9% sterile saline). Immediately, the mouse was placed in a glass cylinder surrounded by a magnetometer coil and the head twitch response (HTR) was assessed for 30 minutes (Halberstadt and Geyer, 2013). The output of the coil was recorded using a Powerlab/8SP with LabChart v.7.3.2 (ADInstruments). Coil voltage was amplified, low-pass filtered (2-10 kHz cut-off frequency) to remove interference, digitized and sampled at 20 kHz. Head twitches were identified using a validated technique based on artificial intelligence (Halberstadt, 2020). Events in the recordings were transformed into a visual representation in the time-frequency domain and deep features were extracted using the pretrained convolutional neural network ResNet-50, and the images were subsequently classified using a Support Vector Machine algorithm.
Test articles (R,S-MDA, R(−)-MDA, S-(+)MDA), R,S-MDMA, R(−)-MDMA and S(+)-MDMA) were supplied by the NIDA Drug Supply Program as neat powders. Racemic MDA and MDMA and their enantiomers were dissolved in saline and injected IP at a volume of 5 mL/kg. Each dose was calculated based on the salt form of the compounds. For each treatment condition, six groups of mice (n=5-6/group) were treated with vehicle or the test drug (0.1, 0.3, 1, 3, or 10 mg/kg) and HTR assessed for 30 minutes immediately following injections. To avoid carryover effects, each treatment condition was performed at least seven days apart. Total number of mice used for the experiment was 63.

CD (Sprague Dawley) rats = assay: Rat telemetry: heart rate, blood pressure, body temperature, activity after cumulative SC dosing; format: in vivo
Source text: Methods. A total of 42 adult male CD® (Sprague Dawley) rats (Charles River Laboratories) were surgically implanted with DSI radiotelemetry devices by personnel at Charles River Laboratories Raleigh, NC, per their test site SOPs. Telemetry devices supported continuous recording of temperature, activity, blood pressure and heart rate. Telemeterized rats were shipped to the Charles River Laboratories testing facility (Mattawan, MI) and acclimated to the environment for at least 1 week prior to experimentation. Animals were pair-housed in solid bottom cages with nonaromatic bedding. On the dosing day, animals were singly housed and then returned to the paired cohort following the dosing/telemetry recording phase. Diet (Lab Diet® Certified Rodent Diet #5CR4) and tap water via an automatic water system were available ad libitum, except during designated procedures. Temperature and humidity were maintained according to the Testing Facility SOP. Animals were randomized into treatment groups using a standard, by weight, measured value randomization procedure. Body weight was determined for each rat prior to dosing.
As illustrated in the Table, a total of 36 rats were included in the study. The vehicle and 2 test article doses were administered in a volume of 1 mL/kg to each of 3 groups of n=12 telemeterized rats via subcutaneous injection four times on a given day, followed by neurobehavioral evaluations. This series was repeated 3 times on study. Each group received all 3 dose levels of the applicable test or control article in ascending order with a 1-week washout between dose levels.
Mortality/cage side clinical observations were conducted for all study animals at least twice daily beginning upon receipt through termination, except on days of receipt and termination where frequency was at least once daily. Detailed clinical observations were conducted for all study animals prior to each of the four cumulative doses in a series. Individual body weights were conducted for all study animals at transfer, prior to randomization, on the day of dosing on each of the 3 cycles of dosing. The body weights recorded at transfer and prior to randomization are not reported but are maintained in the study file. Veterinary care was available throughout the course of the study, and animals were examined by the veterinary staff as needed based on clinical signs or other changes. All animals were provided with HydroGel the night prior to their respective dosing days to potentially mitigate any animal welfare issues related to fluid loss/dehydration.
Telemetry monitoring was conducted for all animals 2 hours prior to dosing and through to 7.5 hours following the last (4th) cumulative dose of each series, which included continuous data collection of body temperature, activity, heart rate, and blood pressure (systolic, diastolic, and mean arterial) using telemetry.
The total period of time over which the statistical analyses were conducted encompassed the entire dosing period for all animals (i.e., Dose 1 through 7.5 hour post-4th dose) in an effort to draw conclusions regarding the effects of the dosing procedure and cumulative changes by allowing comparisons between the cumulative dosing periods. The following statistical analyses were performed for each analysis segment.
All time-series data comparisons conducted via statistical analysis are relative to the control treatment and are based on the LSMean values. Additionally, the change values used for the statistical analysis were calculated using a baseline of the 2 hours of pre-dose data, prior to the first compound injection of the series. The raw change values were analyzed.

[2] = Rat plasma pharmacokinetics after cumulative (QID) SC injections; settings: for Cmax: parent analyte (total MDMA after Rac-MDMA)
[3] = telemetry, cumulative SC dosing, dose groups stated in the value
[4] = male rat plasma, parent analyte, QID SC, total 10 mg/kg/day
[5] = male rat plasma, parent analyte, QID SC, total 20 mg/kg/day

CNC(C)Cc1ccc2c(c1)OCO2 (single isomer, unassigned) [R-MDMA, R(−)-3,4-methylenedioxymethamphetamine]
striatal DA compared to the corresponding vehicle condition ([1]; 5 mg/kg/injection): significantly increased striatal DA | frontal cortex 5-HT (serotonin) compared to vehicle ([1]; 5 mg/kg/injection, 5 mg/kg): did not reduce serotonin content in the frontal cortex | striatal HVA compared to the pooled vehicle condition ([1]; 10 mg/kg/injection, n=2): significantly reduced striatal HVA | head twitch response (HTR) compared to control (vehicle) (C57BL/6J mice): increase in HTR | stepwise increases in blood pressure or heart rate with repeated doses (CD (Sprague Dawley) rats; 4 hourly SC injections during telemetry monitoring): no stepwise increases in blood pressure or heart rate were observed | hemodynamic parameters (systolic/diastolic/mean arterial blood pressures and heart rate) (CD (Sprague Dawley) rats; 4 hourly SC injections, cumulative doses 5, 10, or 20 mg/kg/day): dose-dependent blood pressure-increasing effects | body temperature response (CD (Sprague Dawley) rats; R-MDMA 10 mg/kg/day, 4 hourly SC injections): hypothermic response | body temperature response (CD (Sprague Dawley) rats; R-MDMA 20 mg/kg/day, 4 hourly SC injections): hyperthermic response | activity (implanted telemetry devices) (CD (Sprague Dawley) rats; all cumulative doses (5, 10, or 20 mg/kg/day)): Activity-increasing effects | recovery of blood pressure effects (CD (Sprague Dawley) rats; by the end of telemetry monitoring (7.5 h after 4th dose)): only test article examined which produced recoverable effects by the end of telemetry monitoring | heart rate increase (CD (Sprague Dawley) rats; maximum change, R-MDMA and racemic MDMA 10, 20 mg/kg/day, S-MDMA 5, 10 mg/kg/day, 4 hourly SC injections): up to +23% | peak body temperatures (CD (Sprague Dawley) rats; overall mean magnitude of change, 4 hourly SC injections): 38.6 °C | Rank Order Blood Pressures (Systolic, Diastolic, and Mean Arterial) Effects (CD (Sprague Dawley) rats; [3]): R-MDMA (10 mg/kg/day) < S-MDMA (5 mg/kg/day) < Rac.-MDMA (10 mg/kg/day); also recorded: R-MDMA (20 mg/kg/day) < S-MDMA (10 mg/kg/day) < Rac-MDMA (20 mg/kg/day); also recorded: R-MDMA (0 mg/kg/day) < R-MDMA (10 mg/kg/day) < R-MDMA (20 mg/kg/day); also recorded: R-MDMA (10 mg/kg/day) < S-MDMA (10 mg/kg/day) < Rac-MDMA (20 mg/kg/day) | Rank Order Body Temperature Effects (CD (Sprague Dawley) rats; [3]): R-MDMA (10 mg/kg/day) < S-MDMA (5 mg/kg/day) < Rac.-MDMA (10 mg/kg/day); also recorded: R-MDMA (20 mg/kg/day) < S-MDMA (10 mg/kg/day) < Rac-MDMA (20 mg/kg/day); also recorded: R-MDMA (0 mg/kg/day) < R-MDMA (10 mg/kg/day) < R-MDMA (20 mg/kg/day); also recorded: R-MDMA (10 mg/kg/day) < S-MDMA (10 mg/kg/day) < Rac-MDMA (20 mg/kg/day) | Rank Order General Activity Effects (CD (Sprague Dawley) rats; [3]): R-MDMA (10 mg/kg/day) < S-MDMA (5 mg/kg/day) < Rac.-MDMA (10 mg/kg/day); also recorded: R-MDMA (20 mg/kg/day) < S-MDMA (10 mg/kg/day) < Rac-MDMA (20 mg/kg/day); also recorded: R-MDMA (0 mg/kg/day) < R-MDMA (10 mg/kg/day) < R-MDMA (20 mg/kg/day); also recorded: R-MDMA (10 mg/kg/day) < S-MDMA (10 mg/kg/day) < Rac-MDMA (20 mg/kg/day) | Rank Order Heart Rate Measurement Effects (CD (Sprague Dawley) rats; [3]): R-MDMA (10 mg/kg/day) < S-MDMA (5 mg/kg/day) < Rac.-MDMA (10 mg/kg/day); also recorded: R-MDMA (20 mg/kg/day) < S-MDMA (10 mg/kg/day) < Rac-MDMA (20 mg/kg/day); also recorded: R-MDMA (0 mg/kg/day) < R-MDMA (10 mg/kg/day) < R-MDMA (20 mg/kg/day); also recorded: R-MDMA (10 mg/kg/day) < S-MDMA (10 mg/kg/day) < Rac-MDMA (20 mg/kg/day) | AUC(0-t) [2]: 11800 ng·h/mL | dose dependence of Cmax and AUC0-27 hr ([2]; dose increase from 10 to 20 mg/kg/day of the dosed test article, QID SC): approximately dose proportional manner | AUC0-27 hr/Dose [2, 4]: 420 *kg*ng/mL/mg | Cmax/Dose [2, 4]: 114 kg·ng/mL/mg | Tlast [2, 4]: 11 h | AUC0-27 hr/Dose [2, 5]: 590 *kg*ng/mL/mg | Cmax/Dose [2, 5]: 127 kg·ng/mL/mg | Tlast [2, 5]: 11 h | AUC(0-t) ([2]; male, Sprague-Dawley (CD), rat, plasma, sc, 10 mg/kg/day, AUC0-27 hr, male rat plasma, parent analyte, QID SC, total 10 mg/kg/day): 4200 ng·h/mL | AUC(0-t) ([2]; male, Sprague-Dawley (CD), rat, plasma, sc, 10 mg/kg/day, AUCTlast, male rat plasma, parent analyte, QID SC, total 10 mg/kg/day): 4160 ng·h/mL | Cmax ([2]; male, Sprague-Dawley (CD), rat, plasma, sc, 10 mg/kg/day, male rat plasma, QID SC, total 10 mg/kg/day of the test article): 1140 ng/mL | half-life ([2]; male, Sprague-Dawley (CD), rat, plasma, sc, 10 mg/kg/day, T1/2, male rat plasma, parent analyte, QID SC, total 10 mg/kg/day): 1.01 h | AUC(0-t) ([2]; male, Sprague-Dawley (CD), rat, plasma, sc, 20 mg/kg/day, AUCTlast, male rat plasma, parent analyte, QID SC, total 20 mg/kg/day): 11300 ng·h/mL | Cmax ([2]; male, Sprague-Dawley (CD), rat, plasma, sc, 20 mg/kg/day, male rat plasma, QID SC, total 20 mg/kg/day of the test article): 2550 ng/mL
